Measurements as given in patent US20130190375A1, “CARBOXAMIDES” (BAYER CROPSCIENCE AG, priority 2005, published 2013).

Tested on: Phakopsora pachyrhizi
Experiment: Soya bean rust control test/spray application
Assay type: in vivo, Phakopsora pachyrhizi on soya beans (cultivar: Enrei)
Settings: sprayed one day before inoculation, evaluated 14 days after inoculation
Experimental: 5 parts by weight of carboxamide of the formula (I), 142.4 parts by weight of acetone and 7.5 parts by weight of emulsifier (polyoxyethylene alkylphenyl ether) are mixed and adjusted with water to the desired concentration.
Soya beans (cultivar: Enrei) were cultivated in plastic containers having a diameter of 7.5 cm. In each case 3 containers, 6 ml of the test substance (preparation as described above) were sprayed onto the seedlings which had reached the 2.3 leaf stage. One day after spraying, the leaves were inoculated with an urediniospore suspension (1×10^5 urediniospores/ml) of Phakopsora pachyrhizi. 14 days after the inoculation, the degree of infection for each container was evaluated and the efficacy was calculated. The phytotoxicity was also monitored.

[1] = active compound application rate 100 ppm

Compound | Efficacy in % [1] [%] | Efficacy in % (active compound application rate 250 ppm) [%]
3-(difluoromethyl)-N-[2-(1,3-dimethylbutyl)-4-fluorophenyl]-1-methyl-1H-pyrazole-4-carboxamide [(38)] | 95 | 
Cc1nn(C)c(F)c1C(=O)Nc1ccccc1C(C)CC(C)C (stereo not shown) [(2), N-[2-(1,3-dimethylbutyl)phenyl]-5-fluoro-1,3-dimethyl-1H-pyrazole-4-carboxamide] | 100 | 
CC(C)CC(C)c1ccccc1NC(=O)c1c(C(F)(F)F)nn(C)c1F (stereo not shown) [(5), 3-(trifluoromethyl)-N-[2-(1,3-dimethylbutyl)phenyl]-5-fluoro-1-methyl-1H-pyrazole-4-carboxamide] | 80 | 
Cn1cc(C(=O)Nc2ccc(F)cc2-c2ccc(Cl)c(Cl)c2)c(C(F)F)n1 [(21), N-(3′,4′-dichloro-5-fluoro-1,1′-biphenyl-2-yl)-3-(difluoromethyl)-1-methyl-1H-pyrazole-4-carboxamide] | 50 | 90
Cn1cc(C(=O)Nc2ccccc2-c2ccc(Cl)cc2)c(I)n1 [(33), N-(4′-chlorobiphenyl-2-yl)-3-iodo-1-methyl-1H-pyrazole-4-carboxamide] | 50 | 
Cn1cc(C(=O)Nc2ccccc2CCC(C)(C)C)c(C(F)F)n1 [(35), 3-(difluoromethyl)-N-[2-(3,3-dimethylbutyl)phenyl]-1-methyl-1H-pyrazole-4-carboxamide] | 100 | 
Cc1nn(C)c(F)c1C(=O)Nc1ccccc1CCC(C)(C)C [(36), N-[2-(3,3-dimethylbutyl)phenyl]-5-fluoro-1,3-dimethyl-1H-pyrazole-4-carboxamide] | 100 | 
Cc1nc(C(F)F)c(C(=O)Nc2ccsc2CC[Si](C)(C)C)s1 [(39), 4-(difluoromethyl)-2-methyl-N-{2-[2-(trimethylsilyl)ethyl]-3-thienyl}-1,3-thiazole-5-carboxamide] | 80 | 
N-[3′-fluoro-4′-(trifluoromethyl)biphenyl-2-yl]-3-iodo-1-methyl-1H-pyrazole-4-carboxamide [(37)] | 50 | 
